Source: paper PMC8279417 (Journal of Medicinal Chemistry, 2021)
Like-named read-outs stand apart in the source and are kept apart here.

How the values were obtained:
[1] = biological target: T1, ERβ (Homo sapiens, UniProt Q92731); conditions: for IC50: read-out: TR-FRET ERβ IC50, displacement of fluorescent-labeled E2 from the LBD of ERβ; for RBA ERβ: relative binding affinity compared to E2 (100%)
Target sequence in this assay (Q92731 264-498 limits assumed): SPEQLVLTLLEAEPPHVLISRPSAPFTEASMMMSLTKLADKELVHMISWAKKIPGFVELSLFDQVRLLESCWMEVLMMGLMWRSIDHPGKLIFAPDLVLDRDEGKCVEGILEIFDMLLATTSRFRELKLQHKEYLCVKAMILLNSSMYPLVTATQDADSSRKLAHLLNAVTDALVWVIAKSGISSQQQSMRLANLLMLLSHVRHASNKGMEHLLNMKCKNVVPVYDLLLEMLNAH
Method: (§1) LanthaScreen TR-FRET ER alpha/beta competitive binding assays (Invitrogen, Carlsbad) were used to investigate the binding affinity to the isolated receptors according to the manufacturer′s protocols. Measurement was performed with an Enspire multimode plate reader (PerkinElmer Life Sciences, Waltham). Calculations were performed with Excel (Microsoft, Redmond) and GraphPad Prism (GraphPad Software, San Diego).

[2] = system: MCF-7TamR cells; assay: Crystal violet assay, MCF-7TamR cells; format: cell-based
[3] = system: COS-7 cells; assay: Cellular uptake into COS-7 cells (fluorometry, related to protein content); format: in vitro ADME, African green monkey; conditions: 10 μM, after 4 h, nmol compound/mg protein
Method: (§2) The compounds were incubated at a concentration of 10 μM with either MCF-7 or COS-7 cells, and the intracellular amount, determined by fluorometry, was related to the protein content.[42]
(§3) The determination of the cellular uptake in MCF-7 and COS-7 cells was performed as already described.[24] Measurement was conducted with the Enspire multimode plate reader.

[4] = biological target: T2, ERα (Homo sapiens, UniProt P03372); conditions: for IC50: read-out: TR-FRET ERα IC50, displacement of fluorescent-labeled E2 from the LBD of ERα; for RBA ERα: relative binding affinity compared to E2 (100%)
T2 sequence (P03372 311-547 limits assumed): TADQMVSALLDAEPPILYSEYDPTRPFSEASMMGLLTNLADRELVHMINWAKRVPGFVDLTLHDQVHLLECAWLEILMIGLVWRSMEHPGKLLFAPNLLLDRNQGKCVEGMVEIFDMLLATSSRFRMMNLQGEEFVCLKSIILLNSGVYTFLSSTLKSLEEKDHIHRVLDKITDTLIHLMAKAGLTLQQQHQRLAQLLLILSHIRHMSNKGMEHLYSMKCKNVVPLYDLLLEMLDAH
Method: as §1

[5] = system: MDA-MB-231 cells; assay: Crystal violet assay, MDA-MB-231 cells; format: cell-based
[6] = biological target: T3, ERα (Homo sapiens, UniProt P03372); assay: In-Cell Western immunoassay, ERα levels in MCF-7 cells; format: cell-based; conditions: for Emax at 1 µM: MCF7, read-out: % efficacy [1 μM], downregulation of ERα compared to fulvestrant (100%), MCF-7, 1 μM
T3 sequence (P03372 1-595): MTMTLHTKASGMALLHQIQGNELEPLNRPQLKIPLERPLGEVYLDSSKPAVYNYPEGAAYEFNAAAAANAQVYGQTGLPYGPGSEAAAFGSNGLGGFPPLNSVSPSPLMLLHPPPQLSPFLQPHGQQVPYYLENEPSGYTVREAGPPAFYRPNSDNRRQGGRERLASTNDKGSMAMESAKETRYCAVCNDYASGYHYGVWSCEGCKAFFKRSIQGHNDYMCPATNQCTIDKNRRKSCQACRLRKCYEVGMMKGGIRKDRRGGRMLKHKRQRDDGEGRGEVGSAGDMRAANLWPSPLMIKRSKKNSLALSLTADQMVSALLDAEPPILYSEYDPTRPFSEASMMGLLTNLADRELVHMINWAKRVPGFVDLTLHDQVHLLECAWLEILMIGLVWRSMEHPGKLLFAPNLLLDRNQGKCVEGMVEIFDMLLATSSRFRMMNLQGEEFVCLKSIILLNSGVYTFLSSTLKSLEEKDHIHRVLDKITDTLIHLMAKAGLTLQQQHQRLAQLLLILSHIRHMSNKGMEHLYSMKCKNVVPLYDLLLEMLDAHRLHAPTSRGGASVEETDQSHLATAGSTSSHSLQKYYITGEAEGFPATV
Method: Degradation was evaluated with the CellTagTM 700 In-Cell Western kit (LI-COR, Lincoln) according to the manufacturer’s protocol. MCF-7 cells were treated, and calculation was performed as previously described.[24]

[7] = system: MCF-7 cells; assay: Cellular uptake into MCF-7 cells (fluorometry, related to protein content); format: in vitro ADME; conditions: 10 μM, after 4 h (saturation), nmol compound/mg protein
Method: as §2, §3

[8] = biological target: T3, ERα; assay: Luciferase reporter gene assay (transactivation), U2OS cells transfected with pSG5-ERα; format: cell-based; conditions: inhibition of E2-induced (0.03 nM) transactivation
[9] = biological target: T1, ERβ; assay: Luciferase reporter gene assay (transactivation), U2OS cells transfected with pSG5-ERβ; format: cell-based; conditions: inhibition of E2-induced (0.3 nM) transactivation
Target sequence in this assay (Q92731 whole entry, the tested form may be a part): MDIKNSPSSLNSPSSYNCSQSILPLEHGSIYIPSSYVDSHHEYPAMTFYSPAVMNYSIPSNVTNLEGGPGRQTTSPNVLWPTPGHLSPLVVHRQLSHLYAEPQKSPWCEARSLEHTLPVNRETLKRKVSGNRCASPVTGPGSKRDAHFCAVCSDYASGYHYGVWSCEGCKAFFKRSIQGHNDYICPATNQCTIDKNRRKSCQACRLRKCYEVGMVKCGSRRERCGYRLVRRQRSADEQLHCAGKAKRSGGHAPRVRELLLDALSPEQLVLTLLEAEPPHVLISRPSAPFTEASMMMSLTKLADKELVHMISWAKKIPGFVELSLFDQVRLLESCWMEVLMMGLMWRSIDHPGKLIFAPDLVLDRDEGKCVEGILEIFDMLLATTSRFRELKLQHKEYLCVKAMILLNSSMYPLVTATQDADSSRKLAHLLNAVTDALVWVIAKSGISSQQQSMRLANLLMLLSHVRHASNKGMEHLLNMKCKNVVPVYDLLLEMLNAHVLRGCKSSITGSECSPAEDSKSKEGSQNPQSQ

[10] = 0.5 mM, methanol/2× PBS (75:25), 37 °C, 72 h
From the text: For the interpretation of the biological results, it is necessary to obtain information about the isomerization by simulating physiological conditions.

CCC(=C(c1ccc(O)cc1)c1ccc(/C=C/C(=O)NCCCNC(=O)CCCn2c(=S)[nH]c3ccccc3c2=O)cc1)c1ccccc1 (mixture of isomers) [Compound 15]
IC50 [1]: 0.0126 ± 0.0048 µM
RBA ERβ [1]: 5.9%
T/Ccorr MCF-7TamR [2]: about 40%
cellular uptake, COS-7 cells [3]: 1.6 nmol/mg
IC50 [4]: 0.00401 ± 0.0019 µM
RBA ERα [4]: 8.2%
T/Ccorr MDA-MB-231 [5]: 20%
Emax at 1 µM [6]: 60%
cellular uptake, MCF-7 cells [7]: 2.8 nmol/mg
IC50 [8]: 0.0302 ± 0.0143 µM
IC50 [9]: 0.0041 ± 0.0006 µM

CCC(=C(c1ccc(O)cc1)c1ccc(/C=C/C(=O)NCCCNC(=O)c2ccc(N3CCN(C(=O)CCCn4c(=S)[nH]c5ccccc5c4=O)CC3)cc2)cc1)c1ccccc1 (mixture of isomers) [Compound 17]
IC50 [1]: 0.0185 ± 0.0048 µM
RBA ERβ [1]: 4%
T/Ccorr MCF-7TamR [2]: about 40%
IC50 [4]: 0.00463 ± 0.00174 µM
RBA ERα [4]: 7.1%
amount of the E isomer [10]: 25%
Emax at 1 µM [6]: 94.5%
% ERα remaining [1 μM] ([6]; MCF-7 cells, 24 h, 1 μM, compared to the solvent control (DMSO)): 5.5 ± 5.0%
% efficacy [1 μM] ([6]; downregulation of ERα compared to fulvestrant (100%), MCF-7, 1 μM): 95%
IC50 [8]: 0.104 ± 0.014 µM
IC50 [9]: 0.048 ± 0.012 µM
